Laboratory results from ChEMBL document CHEMBL6071140, “Ocotillol Derivatives Mitigate Retinal Ischemia-Reperfusion Injury by Regulating the Keap1/Nrf2/ARE Signaling Pathway” (J Med Chem, 2024).
Calls of active or inactive are those of the source. No cut-off for these calls is given here.

Tests used:
R28 [1] = assay: (§1) Upregulation of Nrf2 protein expression in OGD stimulated rat R28 cells by Western blotting analysis; format: functional
[2] = Inhibition of OGD stimulated ROS accumulation in rat R28 cells assessed as fold decrease in ROS level at 1.25 uM preincubated for 24 hrs followed by OGD stimulation by DCFH-DA staining based confocal laser scanning microscopy; format: functional
BMDM [3] = assay: Antiinflammatory activity against LPS-stimulated mouse BMDM assessed as reduction in NO production at 1.25 uM preincubated for 2 hrs followed by LPS addition for 22 hrs by Griess reagent based assay; format: functional, cell-based; settings: time 24.0 hrs
R28 [4] = assay: Antioxidant activity in rat R28 cells assessed as protection against OGD induced cytotoxicity by measuring cellular ATP level preincubated under OGD condition for 8 hrs followed by reoxygenation for 4 hrs by CellTiter-Lumi Plus cell viability assay; format: functional, cell-based; settings: dose 0.1-40 µM, time 12.0 hrs
BMDM [5] = assay: (§2) Antiinflammatory activity against LPS-stimulated mouse BMDM assessed as fold decrease in TNFalpha expression at 1.25 uM preincubated for 2 hrs followed by LPS addition for 22 hrs by ELISA; format: functional; settings: time 24.0 hrs
[6] = target: Kelch-like ECH-associated protein 1 (Homo sapiens) (UniProt Q14145); assay: Binding affinity to Keap1 (unknown origin) incubated for 15 mins by MST assay; settings: filed as activator
Chain of Kelch-like ECH-associated protein 1 (Homo sapiens) (Q14145 whole entry): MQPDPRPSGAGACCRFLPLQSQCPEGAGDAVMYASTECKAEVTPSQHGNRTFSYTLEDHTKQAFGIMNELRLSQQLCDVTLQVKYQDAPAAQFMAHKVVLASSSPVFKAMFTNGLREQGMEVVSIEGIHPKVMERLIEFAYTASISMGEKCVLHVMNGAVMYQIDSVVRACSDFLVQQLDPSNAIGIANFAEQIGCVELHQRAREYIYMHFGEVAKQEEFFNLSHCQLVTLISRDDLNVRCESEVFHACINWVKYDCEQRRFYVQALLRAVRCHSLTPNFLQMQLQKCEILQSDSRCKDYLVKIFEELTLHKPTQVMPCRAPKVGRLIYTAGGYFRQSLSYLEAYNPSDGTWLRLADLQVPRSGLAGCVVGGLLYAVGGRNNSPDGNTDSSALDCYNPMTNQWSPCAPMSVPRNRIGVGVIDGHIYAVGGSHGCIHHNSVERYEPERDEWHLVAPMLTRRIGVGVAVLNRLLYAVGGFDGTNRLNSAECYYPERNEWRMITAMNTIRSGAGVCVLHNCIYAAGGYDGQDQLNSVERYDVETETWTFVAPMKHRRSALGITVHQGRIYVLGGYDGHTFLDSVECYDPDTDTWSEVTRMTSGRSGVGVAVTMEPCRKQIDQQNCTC

[7] = Cytotoxicity against rat R28 cells assessed as decrease in cellular ATP content incubated for 24 hrs by CellTiter-Lumi Plus cell viability assay; format: toxicity, cell-based; settings: r28, 24 h
R28 [8] = assay: (§3) Upregulation of NQO1 protein expression in OGD stimulated rat R28 cells by Western blotting analysis; format: functional
BMDM [9] = assay: Antiinflammatory activity against LPS-stimulated mouse BMDM assessed as reduction in IL6 expression at 1.25 uM preincubated for 2 hrs followed by LPS addition for 22 hrs by ELISA; format: functional, cell-based; settings: time 24.0 hrs
BMDM [10] = assay: (§4) Antiinflammatory activity against LPS-stimulated mouse BMDM assessed as induction of polarization toward M2 phenotype at 1.25 uM preincubated for 2 hrs followed by LPS addition for 22 hrs by DAPI staining based confocal laser scanning microscopy; format: functional; settings: time 24.0 hrs
R28 [11] = assay: Antioxidant activity in rat R28 cells assessed as protection against OGD induced cytotoxicity by measuring cellular ATP level at 0.1 to 40 uM preincubated under OGD condition for 8 hrs followed by reoxygenation for 4 hrs by CellTiter-Lumi Plus cell viability assay; format: functional, cell-based; settings: dose 0.1-40 µM, time 12.0 hrs
R28 [12] = assay: (§5) Upregulation of HO-1 protein expression in OGD stimulated rat R28 cells by Western blotting analysis; format: functional
Macrophage = assay: Antiinflammatory activity against LPS-stimulated mouse macrophages assessed as reduction in NO production at 0.1 to 40 uM preincubated for 2 hrs followed by LPS addition for 22 hrs by Griess reagent based assay; format: functional, cell-based; settings: dose 0.1-40 µM, time 24.0 hrs
[13] = as §1; format: functional
R28 [14] = assay: Induction of Nrf2 translocation from cytosol to nucleus in OGD stimulated rat R28 cells; format: functional, cell-based
[15] = as §2; format: functional; settings: time 24 hrs
[16] = as §3; format: functional
[17] = as §4; format: functional; settings: time 24 hrs
[18] = as §5; format: functional

Row | SMILES | Activity (R28 [1]) | fold change (FC) [2] | Activity (BMDM [3]) | Activity (R28 [4]) | Activity (BMDM [5]) | Activity [6] | Activity [7] | Activity (R28 [8]) | Activity (BMDM [9]) | Activity (BMDM [10]) | Activity (R28 [11]) | Activity (R28 [12]) | Activity (Macrophage) | Activity [13] | Activity (R28 [14]) | fold change (FC) [15] | Activity [16] | Activity [17] | Activity [18]
1 | CN(CC(=O)O)CC(=O)Nc1nc2c(s1)C[C@]1(C)[C@H]3C[C@@H](O)[C@@H]4[C@@H]([C@]5(C)CC[C@H](C(C)(C)O)O5)CC[C@@]4(C)[C@]3(C)CC[C@H]1C2(C)C | inactive | 1.31 | Active | Dose-Dependent Effect | inactive | Dose-Dependent Effect | Non-Toxic | inactive | Active | Active | Active | inactive | Active |  |  |  |  |  | 
2 | CN(CC(=O)O)CC(=O)Nc1nc2c(s1)C[C@]1(C)[C@H]3C[C@@H](O)[C@@H]4[C@@H]([C@]5(C)CC[C@@H](C(C)(C)O)O5)CC[C@@]4(C)[C@]3(C)CC[C@H]1C2(C)C |  | 1.16 | Active | Dose-Dependent Effect |  | Dose-Dependent Effect | Non-Toxic |  | Active |  | Active |  | Active | 96.59% | Active | 48.3 | 85.54% | 100% | 77.93%
